Experimental data taken from patent US4745191A, “1-((A-substituted phenyl-ω-substituted piperazinyl)alkenyl) cyclohexanol” (American Home Products Corporation, priority 1987, dated 1988).
Where two headings read alike, the source gives them in different places.

Assays:
5-HT1A receptor = molecular target: T1, 5-HT1A receptor (Rattus norvegicus, UniProt P19327); assay: inhibition of [3H] 8-hydroxy-2-(di-n-propylamino)tetraline binding at 5-HT1A receptor binding sites in rat hippocampal tissue; details: for inhibition at 1 µM: read-out: Receptor Binding 5HT1A % Inhibition at 1 μM
T1 construct: from tissue; host or cells: rat hippocampal tissue
T1 sequence (P19327 1-422): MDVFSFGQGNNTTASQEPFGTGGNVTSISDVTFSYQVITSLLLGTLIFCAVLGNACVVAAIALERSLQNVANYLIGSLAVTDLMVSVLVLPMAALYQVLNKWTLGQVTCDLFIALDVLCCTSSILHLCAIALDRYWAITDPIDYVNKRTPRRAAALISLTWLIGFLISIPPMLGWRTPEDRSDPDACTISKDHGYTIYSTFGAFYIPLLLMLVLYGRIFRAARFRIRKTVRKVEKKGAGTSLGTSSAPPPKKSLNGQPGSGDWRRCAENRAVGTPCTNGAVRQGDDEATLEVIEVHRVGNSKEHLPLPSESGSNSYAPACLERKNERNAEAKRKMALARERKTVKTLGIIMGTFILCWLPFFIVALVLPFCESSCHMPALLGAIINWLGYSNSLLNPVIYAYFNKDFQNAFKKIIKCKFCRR
Source text: 8-hydroxy-2-(di-n-propylamino)tetraline binding at 5-HT binding sites in rat hippocamphal tissue, following the procedure of Hall et al., J. Neurochem., 44 1685 (1985).

dopamine D2 receptor = molecular target: T2, dopamine D2 receptor (Rattus norvegicus, UniProt P61169); assay: inhibition of 3H-haloperidol binding at D2 receptors in homogenized limbic brain tissue
T2 construct: D2 receptors found in homogenized limbic brain tissue; from tissue; host or cells: homogenized limbic brain tissue
T2 sequence (P61169 whole entry): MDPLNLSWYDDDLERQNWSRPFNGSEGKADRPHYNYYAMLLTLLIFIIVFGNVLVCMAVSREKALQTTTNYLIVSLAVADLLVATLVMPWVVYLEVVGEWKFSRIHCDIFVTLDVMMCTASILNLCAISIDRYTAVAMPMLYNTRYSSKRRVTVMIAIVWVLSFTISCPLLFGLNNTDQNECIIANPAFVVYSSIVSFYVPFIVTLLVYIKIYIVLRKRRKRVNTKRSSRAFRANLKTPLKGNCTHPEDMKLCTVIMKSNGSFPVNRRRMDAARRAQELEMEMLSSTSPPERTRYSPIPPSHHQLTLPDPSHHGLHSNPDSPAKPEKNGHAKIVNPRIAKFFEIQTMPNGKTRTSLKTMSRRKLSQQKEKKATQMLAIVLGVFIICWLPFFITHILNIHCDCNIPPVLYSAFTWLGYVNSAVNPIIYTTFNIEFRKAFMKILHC
Source text: The actual percentage reduction of ^3 H-haloperidol binding is reported infra and the larger the number, the greater the potential for dopamine D2 receptor binding and antipsychotic activity.

[1] = system: NE (synaptosomal norepinephrine uptake); assay: inhibition of synaptosomal uptake of norepinephrine (3H-NE); assay type: biochemical; details: synaptosomal 3H-NE uptake; for IC50: read-out: Neuronal Uptake NE IC50
[2] = system: 5HT (synaptosomal serotonin uptake); assay: inhibition of synaptosomal uptake of serotonin (14C-5-HT); assay type: biochemical; details: synaptosomal 14C-5-HT uptake; for IC50: read-out: Neuronal Uptake 5HT IC50
[3] = at 1 μM, rat hippocampal tissue

inhibition at 1 µM (5-HT1A receptor; [3]) | SMILES | Ki (5-HT1A receptor; rat hippocampal tissue) | inhibition at 1 µM (dopamine D2 receptor) | IC50 [1] | IC50 [2] | also measured
 | COc1ccc(C(=CCN2CCN(Cc3ccccc3)CC2)C2(O)CCCCC2)cc1 [Example 2, 1-[1-(4-methoxyphenyl)-3-[4-(phenylmethyl)-1-piperazinyl]-1-propenyl]cyclohexanol] | 4 nM | 66% |  |  | 
99% | COc1cccc(C(=CCN2CCN(Cc3ccc(C(F)(F)F)cc3)CC2)C2(O)CCCCC2)c1 [Example 6, 1-[1-(3-methoxyphenyl)-3-[4-[[4-(trifluoromethyl)phenyl]methyl]-1-piperazinyl]-1-propenyl]cyclohexanol] |  | 76% |  |  | 
 | COc1cccc(C(=CCN2CCN(Cc3cccc(Cl)c3)CC2)C2(O)CCCCC2)c1 [Example 4] | 0.7 nM |  |  |  | Ki (dopamine D2 receptor): 17 nM; Neuronal Uptake NE % Inhibition at 10 μM ([1]; at 10 μM): 100%; Neuronal Uptake 5HT % Inhibition at 10 μM ([2]; at 10 μM): 100%
 | COc1cccc(C(=CCN2CCN(c3cncc(Cl)n3)CC2)C2(O)CCCCC2)c1 [Example 8, 1-[3-[4-(6-chloro-2-pyrazinyl)-1-piperazinyl]-1-(3-methoxyphenyl)-1-(3-methoxyphenyl)-1-propenyl]cyclohexanol] | 138 nM |  |  |  | 
 | O=C1CC2(CCCC2)CC(=O)N1CCCCN1CCN(c2ncccn2)CC1 [Buspirone, reference compound] |  |  |  |  | inhibition at 1 µM (5-HT1A receptor): 97%
99% | COc1cccc(C(=CCN2CCN(Cc3ccc(Cl)cc3)CC2)C2(O)CCCCC2)c1 [Example 5, 1-[3-[4-[(4-chlorophenyl)methyl]-1-piperazinyl]-1-(3-methoxyphenyl)-1-propenyl]cyclohexanol] |  | 76% |  |  | 
 | COc1cccc(C(=CCN2CCN(Cc3ccccc3)CC2)C2(O)CCCCC2)c1 [Example 1, 1-[1-(3-methoxyphenyl)-3-[4-(phenylmethyl)-1-piperazinyl]-1-propenyl]cyclohexanol] | 3 nM | 80% | 640 nM | 1690 nM | 
 | COc1cccc(C(=CCN2CCN(c3ncccn3)CC2)C2(O)CCCCC2)c1 [Example 7] | 49 nM | 61% | 4820 nM | 2090 nM | 

SMILES | inhibition at 1 µM (5-HT1A receptor; [3]) | Ki (5-HT1A receptor; rat hippocampal tissue) | inhibition at 1 µM (dopamine D2 receptor) | IC50 [1] | IC50 [2] | also measured
COc1ccc(C(=CCCN2CCN(Cc3ccccc3)CC2)C2(O)CCCCC2)cc1 [Example 10, 1-[1-(4-methoxyphenyl)-4-[4-(phenylmethyl)-1-piperazinyl]-1-butenyl]cyclohexanol] | 74% |  | 53% | 190 nM | 920 nM | 
